Source: patent publication EP4621052A1, “IMMUNE CELL TARGETING PROBE, PRE-TARGETING RECOGNITION AND DRUG DELIVERY SYSTEM BASED ON PROBE, AND USE THEREOF” (Guangdong Keyangle Life Technology Co., Ltd., priority 2022, dated 2024)
Where no end group is shown, it is not given here.

T1: Peptide segment KL19 (KEQPDPGAVAAAAILRAIL)
T1 construct: Synthetic peptide used as ELISA coating antigen; Derived from the C-terminal fragment of Triokinase/FMN cyclase, with an added N-terminal K
T1 peptide: KEQPDPGAVAAAAILRAIL


Columns and labels:
peritoneal macrophages = assay: in vivo labeling of peritoneal macrophages by targeting polypeptide with pre-targeting binding handle; set-up: species or system Kunming mice; conditions: 10 µM peptide premixed with Strep-PE, intraperitoneal injection, 4 h; F4/80-APC counterstain; flow cytometry
Procedure: • (1) In vivo labeling of peritoneal macrophages by targeting polypeptides connected with pre-targeting binding handles: In this example, the targeting polypeptides KS24 (amino acid sequence: […] (SEQ ID NO: 29)) and KS29 (amino acid sequence: […] (SEQ ID NO: 30)) were used. The pre-targeting binding handle was biotin. The biotinylation steps of the targeting polypeptides were as follows: the biotinylation of targeting polypeptides was carried out by adding biotinylated amino acids during peptide synthesis, so that the biotinylation sites can be controlled. Two biotinylated targeting polypeptides (bio-KS24 and bio-KS29) were respectively connected to phycoerythrin-labeled streptavidin (Strep-PE), where streptavidin served as a linker, and the phycoerythrin was connected through the specific binding of the linker to the pre-targeting binding handle (biotin-avidin system) to the targeting polypeptide for immune cell labeling and tracing. The mixtures were incubated together at room temperature for 1 h. In a 100 µL reaction system, the final concentration of the biotinylated targeting polypeptide was 10 µM, and 1 µL of Strep-PE was added. After the incubation, two groups of healthy female Kunming mice (3 mice in each group) were selected. […] After incubation, the cells were washed twice with 1× PBS and analyzed using flow cytometry. […]

[1] = tested on: peripheral blood of Kunming mice; assay: labeling of peripheral blood with targeting polypeptide with pre-targeting binding handle, flow cytometry; assay type: cell-based; conditions: 10 µM peptide; for staining of cell populations in peripheral blood: 4°C 30 min, Strep-PE, CD19 and CD5 antibodies; for identity of the labeled B lymphocyte population: CD19 and CD5 counterstain
Text: (2) Labeling of peripheral blood with the targeting polypeptide connected with pre-targeting binding handle: Healthy Kunming mice were taken and killed by cervical dislocation, and their peripheral blood was collected using anticoagulant blood vessels.
KS24 and KS29 were biotinylated according to the method described in (1) to obtain targeting polypeptides bio-KS24 and bio-KS29 connected with pre-targeting binding handle. The targeting polypeptides bio-KS24 and bio-KS29 each connected with the pre-targeting binding handle were added to 50 µL of peripheral blood samples, respectively, to be diluted to 100 µL with 1×PBS so that the concentration of the targeting polypeptides bio-KS24 and bio-KS29 connected with the pre-targeting binding handle in the solution was 10 µM, and the mixture was incubated at 4°C for 30 min. After the incubation, red blood cells in the peripheral blood were lysed using a conventional red blood cell lysis reagent in the art according to the instructions, washed twice with 1×PBS, resuspended with 100 µL of 1×PBS, and 1 µL/tube of phycoerythrin-labeled Strep-PE, 0.5 µL/tube of anti-mouse CD19 Antibody, and 0.5 µL/tube of FITC anti-mouse CD5 Antibody were added, and incubated at room temperature for 1 h. After the incubation, the cells were washed twice with 1× PBS and analyzed by flow cytometry.

[2] = tested on: peritoneal free macrophages; assay: pre-targeting delivery after intraperitoneal injection, free peritoneal cells, fluorescence microscopy; assay type: in vivo, Kunming mice; conditions: peptide 10 µM intraperitoneal, Strep-PE intraperitoneal 3 h later, killed 1 h later; F4/80-APC counterstain
Procedure: (§1) The specific experimental steps are as follows: Biotinylated targeting polypeptides bio-KS24 and bio-KS29 (i.e., targeting polypeptides connected with the pre-targeting binding handles) were prepared according to the steps described in the above examples.
(§2) The targeting polypeptides (bio-KS24 and bio-KS29) connected with the pre-targeting binding handles were prepared, respectively, with a final concentration of 10 µM and a final volume of 100 µL. Then, the mixture was diluted with PBS to 4 times of the original volume (i.e., 100 µL of the mixed system was diluted to 400 µL), and then injected into Kunming mice intraperitoneally, with an injection volume of 400 µL per mouse. After the injection of the targeted polypeptide for 3 h, 5 µL Trep-PE was diluted into 100 µL of 1× PBS and intraperitoneally injected into mice. The mice were killed 1 h after the injection, and free peritoneal cells and mesentery were extracted and counterstained with F4/80-APC antibody. After incubation, the cells were washed twice with 1× PBS and observed under a fluorescence microscope.
(§3) Untreated healthy mice were used as controls.

[3] = tested on: macrophages on the mesentery; assay: pre-targeting delivery after intraperitoneal injection, mesentery, fluorescence microscopy; assay type: in vivo, Kunming mice; conditions: peptide 10 µM intraperitoneal, Strep-PE intraperitoneal 3 h later, killed 1 h later; F4/80-APC counterstain
Procedure: as §1, §2, §3

[4] = biological target: T1, Peptide segment KL19 …; assay: indirect ELISA, peptide as coating antigen

Molecule | recognition of macrophages in peritoneal cells (peritoneal macrophages) | staining of cell populations in peripheral blood [1] | identity of the labeled B lymphocyte population [1] | pre-labeling of free peritoneal macrophages [2] | pre-labeling of macrophages on the mesentery [3] | binding result [4]
bio-KS24: biotinylated targeting polypeptide KS24, KEQPDPGAVAAAAILRAILEVLQS (SEQ ID NO: 29) (also: biotinylated, site not given here) | can selectively recognize macrophages in peritoneal cells of mice | can stain a subset of B lymphocyte population and granulocyte population | CD5^+ B lymphocytes | could pre-label macrophages | could pre-label macrophages on the mesentery | 
bio-KS29: biotinylated targeting polypeptide KS29, KSSARLEQPDPGAVAAAAILRAILEVLQS (SEQ ID NO: 30) (also: biotinylated, site not given here) | can selectively recognize macrophages in peritoneal cells of mice | can stain a subset of B lymphocyte population and granulocyte population | CD5^+ B lymphocytes | could pre-label macrophages | could pre-label macrophages on the mesentery | 
KA-001 monoclonal antibody (antibody, mouse IgG1, kappa, V domains shown) VH: DVKIVESGGGLVKLGGSLKLSCAASGFTFSRNYMSWVRQTPEKRLELVAGINNNGGSTYYPDTVKGRFTISRDNAKNTLYLQMSSLRSEDTAIYYCAKRGFITTVGAMDYWGQGISVTVSS VL: DIQMTQTTFSLSASLGDRVTISCRASQDISNYLNWYQQIPDGTVKLLIYYTSRLHSGVPSRFSGSGSGTDYSLTISNLEQEDIATYFCQQVHTLPYTFGGGTKLEMKR |  |  |  |  |  | no binding
